Our source for the T/C values is PubChem BioAssay AID220 (DTP/NCI, 2004).

The test relates to CD8F1 mice, subcutaneous mammary adenocarcinoma, T/C%. Briefly: NCI In Vivo Anticancer Drug Screen. Data for tumor model Mammary Adenocarcinoma CD8F1 (subcutaneous) in CD8F1. The following applies: higher = larger tumour. Summed up:
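Antitumor activity is assessed in transplantable-tumor mice by comparing the treated group with a vehicle-treated control group. Survival or tumor size serves as the measure, reported as T divided by C.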

[1] abbreviates: endpoint: median tumor weight (est.), dose: 25.0 mg/kg/injection, schedule: Q07DX005 (ip), vehicle: Klucel (hydroxypropylcellulose) (HPC).
[2] abbreviates: endpoint: median tumor weight (est.), dose: 100.0 mg/kg/injection, schedule: Q07DX005 (ip), vehicle: Klucel (hydroxypropylcellulose) (HPC).
Where [3] appears, read: endpoint: median tumor weight (est.), dose: 400.0 mg/kg/injection, schedule: Q07DX005 (ip), vehicle: Klucel (hydroxypropylcellulose) (HPC).
[4] abbreviates: endpoint: median tumor weight change, dose: 125.0 mg/kg/injection, schedule: Q01DX001 (ip), vehicle: Klucel (hydroxypropylcellulose) (HPC).
Where [5] appears, read: endpoint: median tumor weight change, dose: 250.0 mg/kg/injection, schedule: Q01DX001 (ip), vehicle: Klucel (hydroxypropylcellulose) (HPC).
[6] abbreviates: endpoint: median tumor weight change, dose: 500.0 mg/kg/injection, schedule: Q01DX001 (ip), vehicle: Klucel (hydroxypropylcellulose) (HPC).
[7] abbreviates: endpoint: median tumor weight change, dose: 250.0 mg/kg/injection, schedule: Q01DX001 (ip), vehicle: saline with Tween-80.

The structures appear in SMILES notation. “And” between values parts separate entries of the source, which are not always exact repeats. Identical values can stand only once. Results filed as inconclusive are left out.

Consider `OCC1OC(n2cnc3cc(Cl)c(Cl)cc32)C(O)C1O` (configuration not stated), for which the T/C runs as follows: (endpoint: median tumor weight (est.), dose: 12.5 mg/kg/injection, schedule: Q07DX005 (ip), vehicle: saline with Tween-80) 79 % of control; (endpoint: median tumor weight (est.), dose: 25.0 mg/kg/injection, schedule: Q07DX005 (ip), vehicle: saline with Tween-80) 89 % of control and 92 % of control; (endpoint: median tumor weight (est.), dose: 200.0 mg/kg/injection, schedule: Q07DX005 (ip), vehicle: saline with Tween-80) 80 % of control.

In the case of `O=C([CH-]C(=O)C(F)(F)F)c1ccccc1.O=C([CH-]C(=O)C(F)(F)F)c1ccccc1.O=C([CH-]C(=O)C(F)(F)F)c1ccccc1.O=C([CH-]C(=O)C(F)(F)F)c1ccccc1.[Eu+3].c1ccncc1`, the T/C was 109 % of control (endpoint: median tumor weight (est.), dose: 12.5 mg/kg/injection, schedule: Q07DX005 (ip), vehicle: Klucel (hydroxypropylcellulose) (HPC)); 109 % of control under setting [1]; 103 % of control (endpoint: median tumor weight (est.), dose: 50.0 mg/kg/injection, schedule: Q07DX005 (ip), vehicle: Klucel (hydroxypropylcellulose) (HPC)); 95 % of control under setting [2]; 110 % of control under setting [3].

In the case of `S=C1CCCCN1`, the T/C reads like this: (endpoint: median tumor weight change, dose: 37.5 mg/kg/injection, schedule: Q01DX001 (ip), vehicle: distilled water + Tween-80 + alcohol) 73 % of control; (endpoint: median tumor weight change, dose: 75.0 mg/kg/injection, schedule: Q01DX001 (ip), vehicle: distilled water + Tween-80 + alcohol) 111 % of control; (endpoint: median tumor weight change, dose: 150.0 mg/kg/injection, schedule: Q01DX001 (ip), vehicle: distilled water + Tween-80 + alcohol) 86 % of control.

For the molecule `O=C(O)C1(NO)CCCCC1`, the T/C was 76 % of control under setting [4]; 64 % of control under setting [5]; 61 % of control under setting [6]; 76 % of control (endpoint: median tumor weight change, dose: 1000.0 mg/kg/injection, schedule: Q01DX001 (ip), vehicle: Klucel (hydroxypropylcellulose) (HPC)); 124 % of control (endpoint: median tumor weight change, dose: 2000.0 mg/kg/injection, schedule: Q01DX001 (ip), vehicle: Klucel (hydroxypropylcellulose) (HPC)).

With `O=C1C=CC(=O)O1` (tested in a mixture with another compound), the T/C was 76 % of control (endpoint: median tumor weight (est.), dose: 25.0 mg/kg/injection, schedule: Q07DX004 (ip), vehicle: saline); 61 % of control (endpoint: median tumor weight (est.), dose: 50.0 mg/kg/injection, schedule: Q07DX004 (ip), vehicle: saline); 40 % of control (endpoint: median tumor weight (est.), dose: 100.0 mg/kg/injection, schedule: Q07DX004 (ip), vehicle: saline); 81 % of control (endpoint: median tumor weight (est.), dose: 200.0 mg/kg/injection, schedule: Q07DX004 (ip), vehicle: saline); 94 % of control (endpoint: median tumor weight (est.), dose: 400.0 mg/kg/injection, schedule: Q07DX004 (ip), vehicle: saline).

On to `ClC1C(Cl)C(Cl)C(Cl)C(Cl)C1Cl` (configuration not stated), for which the T/C was 169 % of control (endpoint: median tumor weight change, dose: 62.5 mg/kg/injection, schedule: Q01DX001 (ip), vehicle: Klucel (hydroxypropylcellulose) (HPC)); 105 % of control under setting [4]; 115 % of control under setting [5]; 64 % of control under setting [6].

In the case of `COC1=C2C[C@@H](C)C[C@@H](OC)[C@@H](O)[C@H](C)/C=C(\C)[C@@H](OC(N)=O)[C@H](OC)/C=C\C=C(/C)C(=O)NC(=CC1=O)C2=O`, the T/C was 93 % of control and 98 % of control (endpoint: median tumor weight change, dose: 1.25 mg/kg/injection, schedule: Q01DX001 (ip), vehicle: saline with Tween-80); 117 % of control and 121 % of control (endpoint: median tumor weight change, dose: 2.5 mg/kg/injection, schedule: Q01DX001 (ip), vehicle: saline with Tween-80); 46 % of control (endpoint: median tumor weight change, dose: 5.0 mg/kg/injection, schedule: Q01DX001 (ip), vehicle: saline with Tween-80).

With `C[C@]12CC[C@@H]3c4ccc(O)cc4CC[C@H]3[C@@H]1CC[C@@H]2O`, the T/C (endpoint: median tumor weight (est.), dose: 6.25 mg/kg/injection, schedule: Q07DX005 (ip), vehicle: Klucel (hydroxypropylcellulose) (HPC)) is 97 % of control and the T/C under setting [1] was 27 % of control.

On to `O=CC(=O)c1ccc(O)cc1`, for which the T/C is, setting by setting: (endpoint: median tumor weight (est.), dose: 12.5 mg/kg/injection, schedule: Q07DX005 (ip), vehicle: suspension in saline) 102 % of control; (endpoint: median tumor weight (est.), dose: 25.0 mg/kg/injection, schedule: Q07DX005 (ip), vehicle: suspension in saline) 111 % of control; (endpoint: median tumor weight (est.), dose: 50.0 mg/kg/injection, schedule: Q07DX005 (ip), vehicle: suspension in saline) 123 % of control; (endpoint: median tumor weight (est.), dose: 100.0 mg/kg/injection, schedule: Q07DX005 (ip), vehicle: suspension in saline) 114 % of control.

Turning to `COc1ccc(S(=O)(=O)N=N/C=C2\C=CC=CN2O)cc1OC`, the T/C is 60 % of control (endpoint: median tumor weight change, dose: 31.25 mg/kg/injection, schedule: Q01DX001 (ip), vehicle: saline with Tween-80); 87 % of control (endpoint: median tumor weight change, dose: 62.5 mg/kg/injection, schedule: Q01DX001 (ip), vehicle: saline with Tween-80); 106 % of control under setting [7].

Regarding `CC(=O)[C@H]1CC[C@H]2[C@@H]3C[C@H](C)C4=CC(=O)CC[C@]4(C)[C@H]3C(=O)C[C@]12C`, the T/C by setting is: (endpoint: mean tumor weight (est.), dose: 200.0 mg/kg/injection, schedule: Q07DX003 (ip), vehicle: saline) 67 % of control; (endpoint: mean tumor weight (est.), dose: 400.0 mg/kg/injection, schedule: Q07DX003 (ip), vehicle: saline) 61 % of control; (endpoint: mean tumor weight (est.), dose: 800.0 mg/kg/injection, schedule: Q07DX003 (ip), vehicle: saline) 86 % of control; (endpoint: mean tumor weight, dose: 200.0 mg/kg/injection, schedule: Q07DX005 (ip), vehicle: saline) 107 % of control; (endpoint: mean tumor weight, dose: 200.0 mg/kg/injection, schedule: Q07DX006 (ip), vehicle: saline) 63 % of control; (endpoint: mean tumor weight, dose: 200.0 mg/kg/injection, schedule: Q07DX007 (ip), vehicle: saline) 90 % of control. For the same molecule, the T/C runs as follows: (endpoint: mean tumor weight, dose: 400.0 mg/kg/injection, schedule: Q07DX005 (ip), vehicle: saline) 54 % of control; (endpoint: mean tumor weight, dose: 400.0 mg/kg/injection, schedule: Q07DX006 (ip), vehicle: saline) 39 % of control; (endpoint: mean tumor weight, dose: 400.0 mg/kg/injection, schedule: Q07DX007 (ip), vehicle: saline) 25 % of control; (endpoint: mean tumor weight, dose: 800.0 mg/kg/injection, schedule: Q07DX005 (ip), vehicle: saline) 36 % of control; (endpoint: mean tumor weight, dose: 800.0 mg/kg/injection, schedule: Q07DX007 (ip), vehicle: saline) 49 % of control.

As for `CC(=O)O[C@@H]1CO[C@H]2O[C@H]3[C@@H](C(C=O)=C[C@H](O)[C@@H]4C5=C(C(C)C)CC[C@]5(C)CC[C@@]34C)[C@@]2(O)C1=O`, the T/C (endpoint: median tumor weight change, dose: 3.75 mg/kg/injection, schedule: Q01DX001 (ip), vehicle: Klucel (hydroxypropylcellulose) (HPC)) is 36 % of control; the T/C (endpoint: median tumor weight change, dose: 15.0 mg/kg/injection, schedule: Q01DX001 (ip), vehicle: Klucel (hydroxypropylcellulose) (HPC)) is 63 % of control and 74 % of control.

Take `NC(Cc1ccc(N(CCCl)Cc2ccccc2)cc1)C(=O)O` (configuration not stated): the T/C (endpoint: median tumor weight (est.), dose: 6.25 mg/kg/injection, schedule: Q07DX005 (ip), vehicle: distilled water + Tween-80) was 84 % of control; the T/C (endpoint: median tumor weight (est.), dose: 12.5 mg/kg/injection, schedule: Q07DX005 (ip), vehicle: distilled water + Tween-80) is 60 % of control; the T/C (endpoint: median tumor weight (est.), dose: 25.0 mg/kg/injection, schedule: Q07DX005 (ip), vehicle: distilled water + Tween-80) was 79 % of control; the T/C (endpoint: median tumor weight (est.), dose: 50.0 mg/kg/injection, schedule: Q07DX005 (ip), vehicle: distilled water + Tween-80) is 25 % of control.

Regarding `N=C1CCCS1`, the T/C (endpoint: median tumor weight change, dose: 125.0 mg/kg/injection, schedule: Q01DX001 (ip), vehicle: saline) is 93 % of control and the T/C (endpoint: median tumor weight change, dose: 250.0 mg/kg/injection, schedule: Q01DX001 (ip), vehicle: saline) is 89 % of control.

For `COC1=CC(=O)N(C(=O)C2CSC(C(CO)NC(=O)c3csc(/C=N/O)n3)=N2)C1` (configuration not stated), the T/C is 83 % of control under setting [2]; 102 % of control (endpoint: median tumor weight (est.), dose: 200.0 mg/kg/injection, schedule: Q07DX005 (ip), vehicle: Klucel (hydroxypropylcellulose) (HPC)); 100 % of control under setting [3].

Take `O=CC(O)C(O)C(O)C(O)CO` (configuration not stated): the T/C is 66 % of control (endpoint: median tumor weight change, dose: 75.0 mg/kg/injection, schedule: Q01DX001 (ip), vehicle: saline); 43 % of control (endpoint: median tumor weight change, dose: 150.0 mg/kg/injection, schedule: Q01DX001 (ip), vehicle: saline); 61 % of control (endpoint: median tumor weight change, dose: 300.0 mg/kg/injection, schedule: Q01DX001 (ip), vehicle: saline); 35 % of control (endpoint: median tumor weight change, dose: 600.0 mg/kg/injection, schedule: Q01DX001 (ip), vehicle: saline); 55 % of control (endpoint: median tumor weight change, dose: 1200.0 mg/kg/injection, schedule: Q01DX001 (ip), vehicle: saline).

In the case of `C1OCN2CSCC12` (configuration not stated), the T/C (endpoint: median tumor weight change, dose: 125.0 mg/kg/injection, schedule: Q01DX001 (ip), vehicle: saline with Tween-80) was 90 % of control; the T/C under setting [7] was 71 % of control; the T/C (endpoint: median tumor weight change, dose: 500.0 mg/kg/injection, schedule: Q01DX001 (ip), vehicle: saline with Tween-80) was 82 % of control.
